Assay results from PubChem BioAssay AID1963826 (Molecular Pharmacology Branch, DTP, NCI, 2024).

Test system: 926638-142-R-J1-PDC complex spheroid viability
Assay: Anticancer human tumor 926638-142-R-J1-PDC patient-derived endometrial carcinoma cell line growth inhibition [POLQ]
Conditions: for IC50: curve of first compound; for viability, T/C: stronger effect = lower value
Protocol: Multicellular complex tumor spheroid response to Polymerase (POL) inhibitors (novobiocin, ART-558, RP6685) in combination with a variety of drugs and investigational agents in selected tumor cell lines
The POL inhibitors (novobiocin, ART-558, and RP6685) were evaluated both individually and in combination with standard of care and investigational anticancer small molecules within a complex spheroid model of solid tumors. . Complex spheroids include a stromal component modeled by human endothelial cells (HUVEC) and fibroblasts modeled by human mesenchymal stem cells (MSCs). The concentration ranges selected for each drug and investigational agent were based upon clinically achievable concentrations if the clinical Cmax of the agent was known.
Compounds. The drugs and investigational agents: novobiocin (NSC847541), ART-558 (NSC835418), RP-6685 (NSC848927), peposertib (NSC802822), ceralasertib (NSC780249), elimusertib (NSC800525), camonsertib (NSC841442), AZD-1390 (NSC803789), olaparib (NSC753686), talazoparib (NSC767125), rucaparib (NSC756644), sotorasib (NSC818433), MRTX-1133 (NSC836407), SN-38 (NSC673596), topotecan (NSC609699), epotoside (NSC141540), doxorubicin (NSC123127), gemcitabine (NSC613327), 5-fluorouracil (NSC19893), paclitaxel (NSC125973), vemurafenib (NSC761431), MSA-2 (NSC828583), SN-011 (NSC837082), adavosertib (NSC754352), prexasertib (NSC758257), carboplatin (NSC241240) and oxaliplatin (NSC266046), were obtained from the National Cancer Institute (NCI) Developmental Therapeutics Program Chemical Repository (21). The FDA-approved anticancer drug set is available from the Developmental Therapeutics Program at https://dtp.cancer.gov/organization/dscb/obtaining/. […] The stock solutions were prepared in dimethyl sulfoxide (DMSO, Sigma-Aldrich, St. Louis, MO, cat. D2650), except for the platinum compounds which were prepared in saline (Quality Biological, Gaithersburg, MD, cat. 114-055-101), at 800-fold the tested concentration and stored at -70 degrees C prior to their use. All drugs and investigational agents were tested over a range starting from a high concentration at or near the clinical Cmax and decreasing in half-log increments. If the clinical Cmax for an agent had not been determined, the highest concentration tested was 10 microM, except for SN-38, which was tested at a high concentration of 1 microM.
Cell Culture. All cells were maintained in an incubator at 37 degrees C and 5% CO2 with 95% humidity. The PDC lines were cultured according to standard operating procedures established by the NCI PDMR (https://pdmr.cancer.gov). Table 3 of the manuscript, lists the cell lines along with the number of the three cell types plated to form the mct-spheroids and media for tumor cell growth. After thawing, all PDC lines, except 997537-175-T-J1-PDC and 415267-285-R-J2-PDC, were cultured in Matrigel-coated flasks prepared with a working solution of 1X Ham's F-12 nutrient mix, without supplementation (Thermo Fisher Scientific, cat. 11765054), 100 U/mL penicillin-streptomycin (Thermo Fisher Scientific, cat. 15140122), and 2.5% Matrigel (Corning Inc., Corning, NY, cat. 354248) for the first three passages. The two PDC lines 997537-175-T-J1-PDC and 415267-285-R-J2-PDC were cultured on uncoated flasks. The 857933-349-R-J2-PDC line was cultured in 6C/Colon 1B media containing advanced DMEM/F-12 (Thermo Fisher Scientific, cat. 12634028), 10 mM HEPES (Thermo Fisher Scientific, cat. 15630080), 1X GlutaMAX supplement (Thermo Fisher Scientific, cat. 35050061), 0.1 mg/mL primocin (InvivoGen, San Diego, CA, cat. ant-pm-2), 10% defined fetal bovine serum, heat inactivated (HyClone Laboratories Inc., Logan, UT, cat. SH30070.03HI), 50% L-WRN conditioned media (ATCC, cat. CRL-3276), 1.25 mM N-Acetyl-L-cysteine (Sigma-Aldrich, cat. A9165), 10 mM nicotinamide (Sigma-Aldrich, cat. N0636), 1X B-27 supplement (Thermo Fisher Scientific, cat. 17504044), 1X N-2 supplement (Thermo Fisher Scientific, cat. […]
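Note: spheroids exposed to drugs for one week before readout.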
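Throughout, for viability, T/C: percent viability relative to DMSO vehicle control wells set as 100%.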

Question: With `O=c1[nH]cc(F)c(=O)[nH]1` + COC1C(OC(N)=O)C(O)C(Oc2ccc3c(O)c(NC(=O)c4ccc(O)c(CC=C(C)C)c4)c(=O)oc3c2C)OC1(C)C as the compound, how does the IC50 (second compound 0.0316 µM) read?
Answer: > 10 µM

Question: What about the IC50 (second compound 0.1 µM) of the same compound?
Answer: > 10 µM

Question: What about the IC50 (second compound 0.316 µM) of the same compound?
Answer: > 10 µM

Question: And the IC50 (second compound 1 µM)?
Answer: > 10 µM

Question: What about the IC50 (second compound 3.16 µM) of the same compound?
Answer: > 10 µM

Question: And the IC50 (second compound 10 µM)?
Answer: > 10 µM

Question: And the viability, T/C (second compound 0.0316 µM, first compound 0.0316 µM)?
Answer: 124%

Question: What about the viability, T/C (second compound 0.0316 µM, first compound 0.1 µM) of the same compound?
Answer: 110%

Question: And the viability, T/C (second compound 0.0316 µM, first compound 0.316 µM)?
Answer: 94.1%

Question: And the viability, T/C (second compound 0.0316 µM, first compound 1 µM)?
Answer: 101%

Question: What about the viability, T/C (second compound 0.0316 µM, first compound 3.16 µM) of the same compound?
Answer: 98.4%

Question: And the viability, T/C (second compound 0.0316 µM, first compound 10 µM)?
Answer: 94.1%

Question: What about the viability, T/C (second compound 0.1 µM, first compound 0.0316 µM) of the same compound?
Answer: 106%

Question: What about the viability, T/C (second compound 0.1 µM, first compound 0.1 µM) of the same compound?
Answer: 90.8%

Question: And the viability, T/C (second compound 0.1 µM, first compound 0.316 µM)?
Answer: 104%

Question: What about the viability, T/C (second compound 0.1 µM, first compound 1 µM) of the same compound?
Answer: 90.4%

Question: And the viability, T/C (second compound 0.1 µM, first compound 3.16 µM)?
Answer: 103%

Question: What about the viability, T/C (second compound 0.1 µM, first compound 10 µM) of the same compound?
Answer: 71%

Question: What about the viability, T/C (second compound 0.316 µM, first compound 0.0316 µM) of the same compound?
Answer: 125%

Question: What about the viability, T/C (second compound 0.316 µM, first compound 0.1 µM) of the same compound?
Answer: 105%

Question: What about the viability, T/C (second compound 0.316 µM, first compound 0.316 µM) of the same compound?
Answer: 87.3%

Question: What about the viability, T/C (second compound 0.316 µM, first compound 1 µM) of the same compound?
Answer: 84.1%

Question: And the viability, T/C (second compound 0.316 µM, first compound 3.16 µM)?
Answer: 98.2%

Question: What about the viability, T/C (second compound 0.316 µM, first compound 10 µM) of the same compound?
Answer: 82.7%

Question: What about the viability, T/C (second compound 1 µM, first compound 0.0316 µM) of the same compound?
Answer: 98.3%

Question: And the viability, T/C (second compound 1 µM, first compound 0.1 µM)?
Answer: 106%

Question: What about the viability, T/C (second compound 1 µM, first compound 0.316 µM) of the same compound?
Answer: 90.1%

Question: And the viability, T/C (second compound 1 µM, first compound 1 µM)?
Answer: 79.6%

Question: And the viability, T/C (second compound 1 µM, first compound 3.16 µM)?
Answer: 79.3%

Question: And the viability, T/C (second compound 1 µM, first compound 10 µM)?
Answer: 75.4%

Question: What about the viability, T/C (second compound 3.16 µM, first compound 0.0316 µM) of the same compound?
Answer: 102%

Question: What about the viability, T/C (second compound 3.16 µM, first compound 0.1 µM) of the same compound?
Answer: 85.9%

Question: And the viability, T/C (second compound 3.16 µM, first compound 0.316 µM)?
Answer: 90.6%

Question: And the viability, T/C (second compound 3.16 µM, first compound 1 µM)?
Answer: 86.9%

Question: What about the viability, T/C (second compound 3.16 µM, first compound 3.16 µM) of the same compound?
Answer: 79.5%

Question: And the viability, T/C (second compound 3.16 µM, first compound 10 µM)?
Answer: 83.6%

Question: And the viability, T/C (second compound 10 µM, first compound 0.0316 µM)?
Answer: 104%

Question: And the viability, T/C (second compound 10 µM, first compound 0.1 µM)?
Answer: 96.6%

Question: What about the viability, T/C (second compound 10 µM, first compound 0.316 µM) of the same compound?
Answer: 77.1%

Question: What about the viability, T/C (second compound 10 µM, first compound 1 µM) of the same compound?
Answer: 86.6%

Question: What about the viability, T/C (second compound 10 µM, first compound 3.16 µM) of the same compound?
Answer: 114%

Question: What about the viability, T/C (second compound 10 µM, first compound 10 µM) of the same compound?
Answer: 83.4%
